According to publication PMC12130737, “Taurine Alleviates Pancreatic β‐Cell Senescence by Inhibition of p53 Pathway” (Journal of Diabetes, 2025):
Substitutions are numbered along the chain they refer to.

Tests used:
CDKN2AIP [1] = molecular target: T1, CDKN2AIP (Mus musculus, UniProt Q8BI72); experiment: DARTS (proteinase K protection, immunoblot); assay type: biochemical; conditions: MIN6 cell lysate, taurine 0-200 uM, pH 7.5, 1 h on ice
T1 construct: endogenous protein in MIN6 cell lysate
T1 sequence (Q8BI72 2-563): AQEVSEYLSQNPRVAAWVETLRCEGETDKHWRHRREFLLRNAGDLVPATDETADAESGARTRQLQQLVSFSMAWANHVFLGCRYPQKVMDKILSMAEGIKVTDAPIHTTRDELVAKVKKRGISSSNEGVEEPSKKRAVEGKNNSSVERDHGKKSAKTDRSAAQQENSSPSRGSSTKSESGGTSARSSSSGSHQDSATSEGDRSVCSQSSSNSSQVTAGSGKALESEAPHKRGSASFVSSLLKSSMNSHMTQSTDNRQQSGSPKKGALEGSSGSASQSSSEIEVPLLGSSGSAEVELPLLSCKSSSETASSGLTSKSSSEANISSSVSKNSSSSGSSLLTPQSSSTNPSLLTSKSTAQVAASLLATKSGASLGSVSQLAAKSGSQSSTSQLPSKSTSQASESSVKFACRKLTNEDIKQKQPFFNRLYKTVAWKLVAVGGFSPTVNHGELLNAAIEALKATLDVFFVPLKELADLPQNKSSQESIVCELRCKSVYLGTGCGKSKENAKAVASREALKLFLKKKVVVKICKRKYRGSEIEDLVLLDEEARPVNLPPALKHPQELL

SLC6A6 [2] = molecular target: T2, SLC6A6 (Mus musculus, UniProt O35316); experiment: DARTS (proteinase K protection, immunoblot); assay type: biochemical; conditions: MIN6 cell lysate, taurine 0-200 uM, pH 7.5, 1 h on ice; positive control
T2 construct: endogenous protein in MIN6 cell lysate
T2 sequence (O35316 1-621): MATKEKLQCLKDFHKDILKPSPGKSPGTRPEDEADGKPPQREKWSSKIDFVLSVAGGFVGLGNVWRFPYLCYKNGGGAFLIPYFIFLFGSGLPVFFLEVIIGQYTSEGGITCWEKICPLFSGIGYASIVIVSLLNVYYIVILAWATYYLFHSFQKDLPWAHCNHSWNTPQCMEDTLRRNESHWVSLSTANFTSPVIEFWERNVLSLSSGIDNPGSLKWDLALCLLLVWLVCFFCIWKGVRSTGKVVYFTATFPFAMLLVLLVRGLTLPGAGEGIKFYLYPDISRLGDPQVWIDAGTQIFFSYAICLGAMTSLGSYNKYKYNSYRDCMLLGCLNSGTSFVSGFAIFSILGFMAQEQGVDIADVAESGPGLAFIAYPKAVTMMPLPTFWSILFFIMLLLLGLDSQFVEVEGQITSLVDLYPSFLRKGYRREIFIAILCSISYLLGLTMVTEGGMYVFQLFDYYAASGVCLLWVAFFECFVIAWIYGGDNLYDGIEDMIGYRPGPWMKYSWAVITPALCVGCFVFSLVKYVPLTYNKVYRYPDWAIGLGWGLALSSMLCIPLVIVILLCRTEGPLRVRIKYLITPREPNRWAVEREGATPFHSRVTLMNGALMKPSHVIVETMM

CDKN2AIP [3] = molecular target: T3, CDKN2AIP (Rattus norvegicus, UniProt Q5U2X0); experiment: DARTS (proteinase K protection, immunoblot); assay type: biochemical; conditions: INS-1E cell lysate, taurine 0-200 uM, pH 7.5, 1 h on ice
T3 construct: endogenous protein in INS-1E cell lysate
T3 sequence (Q5U2X0 2-570): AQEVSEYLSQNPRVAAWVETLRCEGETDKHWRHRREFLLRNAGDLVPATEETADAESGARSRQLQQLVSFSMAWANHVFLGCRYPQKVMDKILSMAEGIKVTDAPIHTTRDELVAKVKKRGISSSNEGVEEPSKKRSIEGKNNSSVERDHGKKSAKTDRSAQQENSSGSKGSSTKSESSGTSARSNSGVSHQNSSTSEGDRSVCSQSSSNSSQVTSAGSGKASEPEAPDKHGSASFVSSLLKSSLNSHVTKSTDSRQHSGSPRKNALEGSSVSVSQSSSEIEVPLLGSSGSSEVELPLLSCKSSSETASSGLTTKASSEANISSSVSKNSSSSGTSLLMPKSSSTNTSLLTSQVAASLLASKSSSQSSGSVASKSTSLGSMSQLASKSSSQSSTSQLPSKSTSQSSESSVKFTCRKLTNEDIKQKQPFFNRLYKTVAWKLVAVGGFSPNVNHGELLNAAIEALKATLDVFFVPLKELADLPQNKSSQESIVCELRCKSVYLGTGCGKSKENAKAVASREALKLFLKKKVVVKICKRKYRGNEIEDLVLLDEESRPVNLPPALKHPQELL

GFP-tagged CDKN2AIP [4] = molecular target: T4, GFP-tagged CDKN2AIP (Homo sapiens, UniProt Q9NXV6, P484A/L485A/K486A); experiment: DARTS (proteinase K protection, immunoblot); assay type: biochemical; conditions: HEK293 cell lysate, GFP-tagged triple mutant
T4 construct: GFP-tagged human CDKN2AIP expressed in HEK293 cells, cell lysate
T4 sequence (Q9NXV6 2-580 P484A/L485A/K486A): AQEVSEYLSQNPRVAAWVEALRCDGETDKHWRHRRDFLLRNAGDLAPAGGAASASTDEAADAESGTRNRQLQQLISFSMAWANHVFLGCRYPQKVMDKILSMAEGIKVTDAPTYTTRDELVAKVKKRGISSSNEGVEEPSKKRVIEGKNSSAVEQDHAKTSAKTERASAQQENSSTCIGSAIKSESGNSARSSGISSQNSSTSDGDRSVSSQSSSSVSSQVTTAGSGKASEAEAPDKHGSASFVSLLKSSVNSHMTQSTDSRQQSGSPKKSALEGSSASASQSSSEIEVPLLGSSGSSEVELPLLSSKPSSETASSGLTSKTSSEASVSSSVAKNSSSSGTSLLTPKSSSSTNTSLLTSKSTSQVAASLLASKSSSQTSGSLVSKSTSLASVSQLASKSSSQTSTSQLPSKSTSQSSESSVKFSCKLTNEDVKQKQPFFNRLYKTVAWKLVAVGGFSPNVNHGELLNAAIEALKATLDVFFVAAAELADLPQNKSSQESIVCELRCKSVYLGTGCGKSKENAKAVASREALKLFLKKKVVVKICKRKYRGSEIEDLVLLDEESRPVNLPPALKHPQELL

SLC6A6 [5] = molecular target: T5, SLC6A6 (Rattus norvegicus, UniProt P31643); experiment: DARTS (proteinase K protection, immunoblot); assay type: biochemical; conditions: INS-1E cell lysate, taurine 0-200 uM, pH 7.5, 1 h on ice; positive control
T5 construct: endogenous protein in INS-1E cell lysate
T5 sequence (P31643 1-621): T2 sequence (O35316 1-621) with H151Q, T188A, N212H, D281N, G286E, L435V, V521I, L555V, V602A

[6] = molecular target: T6, CDKN2AIP recombinant protein (Homo sapiens, UniProt Q9NXV6); experiment: DARTS (proteinase K protection of recombinant protein); assay type: binding
T6 construct: recombinant human CDKN2AIP
T6 sequence (Q9NXV6 2-580): T4 sequence (Q9NXV6 2-580 P484A/L485A/K486A) with A483P, A484L, A485K

GFP-tagged CDKN2AIP [7] = molecular target: T7, GFP-tagged CDKN2AIP (Homo sapiens, UniProt Q9NXV6); experiment: DARTS (proteinase K protection, immunoblot); assay type: biochemical; conditions: HEK293 cell lysate, GFP-tagged wild type
T7 construct: GFP-tagged human CDKN2AIP expressed in HEK293 cells, cell lysate
T7 sequence (Q9NXV6 2-580): T4 sequence (Q9NXV6 2-580 P484A/L485A/K486A) with A483P, A484L, A485K

## NCCS(=O)(=O)O [taurine, 2‐aminoethanesulfonic acid]
CDKN2AIP [1]
  DARTS (proteinase K protection, immunoblot): taurine dose‐dependently prevented protease K‐induced degradation of CDKN2AIP and SLC6A6
SLC6A6 [2]
  DARTS (proteinase K protection, immunoblot): taurine dose‐dependently prevented protease K‐induced degradation of CDKN2AIP and SLC6A6
CDKN2AIP [3]
  DARTS (proteinase K protection, immunoblot): taurine dose‐dependently prevented protease K‐induced degradation of CDKN2AIP and SLC6A6
GFP-tagged CDKN2AIP [4]
  DARTS (proteinase K protection, immunoblot): taurine bound to wild‐type CDKN2AIP but not the CDKN2AIP‐triple mutant
SLC6A6 [5]
  DARTS (proteinase K protection, immunoblot): taurine dose‐dependently prevented protease K‐induced degradation of CDKN2AIP and SLC6A6
[6]
  DARTS (proteinase K protection of recombinant protein): Taurine also prevented proteinase K‐induced degradation of the CDKN2AIP recombinant protein
GFP-tagged CDKN2AIP [7]
  DARTS (proteinase K protection, immunoblot): DARTS experiments demonstrated that taurine bound to wild‐type CDKN2AIP
